Test results: patent publication US8221992B2, “Assays for determining compounds which modulate TRAM phosphorylation” (Opsona Therapeutics Limited, priority 2005, dated 2012)
Entries after “also recorded” stand apart in the source; their conditions may differ.

Assays:
TRAM = assay: Immunoblot of PKCε expressing MEF lysates with phospho-specific (Serine 16) TRAM antibody; assay type: cell-based; conditions: stimulation for 30 minutes (LPS 15 and 30 minutes)
Description: Fabgennix (Texas, USA), using a synthetic peptide corresponding to amino acids 7 to 21 of TRAM (KIN SCP LSL SWG KRH) with a phosphoserine incorporated instead of the serine at amino acid 16, generated and purified a phospho-specific antibody towards TRAM phosphorylated on Serine 16. The validity of the antibody was confirmed when the band predicted to the phosphorylated TRAM was not present in samples taken from TRAM-deficient MEFs (data not shown).
The phosphorylation occurred earlier in this cell type than the THP1 cells as the effect was waning by 45 minutes (lane 11) and was not evident at 60 minutes (lane 12). Levels of total TRAM were not altered in the lysates over the time course (FIG. 4c, second panel). Importantly no band was detected in lysates generated from PKCε^−/− MEFs (FIG. 4c, top panel, lane 1-6) and no bands were detected in TRAM-deficient cells attesting to the specificity of the antibody (data not shown). Finally treatment of PKCε expressing MEFs with the TLR2 ligand MALP2 or the TLR3 ligand polyI:C for 30 minutes had no effect (FIG. 4d).

GST-TRAM = assay: Kinase assay: GST-TRAM pulldown with THP1 lysates, [γ32P] ATP; assay type: biochemical; conditions: THP1 cells treated with the stimulus before lysis
Procedure: Kinase assay: THP1 cells were seeded at 2×10^5 cells/ml in a T175 flask (Sarstedt) and incubated overnight at 37° C. The following day 30 ml of cells were treated with and without LPS in 50 ml falcon tubes (Sarstedt) for 1 hour. The cells were collected by centrifugation, washed once in PBS and lysed in 1 ml buffer (10% glycerol (v/v), 50 mM NaF, 20 mM Tris-Cl pH 8.0, 2 mM EDTA, 137 mM NaCl, 1% NP-40, 1 mM PMSF, 10 μg/ml leupeptin, 1 mM Na3VO4) for 10 minutes. The cell debris was centrifuged for 10 min at 13,000 rpm and the supernatant was removed to a fresh tube for use in the kinase assay. 50 μl of the purified GST-TRAM on the Glutathione beads was placed in an eppendorf tube and the appropriate lysate was added to the tube and incubated for 2 hours at 4° C. The beads were spun down at 2,000 rpm for 5 min and then washed three times in kinase buffer (20 mM HEPES, pH 7.5, 10 mM MgAc, 0.03% Trition, 100 μg/ml phosphotidylserine, 20 mM β-glycerol phosphate, 0.01% (w/v) leupeptin and 100 μM Na3VO4). These beads were then resuspended in 30 μl kinase buffer containing 20 μM cold ATP and 5 μCi [γ^32P] […]
TRAM is phosphorylated upon LPS stimulation: TRAM is myristoylated, and in resting cells is located in the membrane (unpublished data). […] The samples were then run on a 10% SDS-PAGE gel, transferred onto nitrocellulose and the incorporated radioactivity was measured using X-ray film. […]

MALP2
TRAM phosphorylation on serine 16 in PKCε expressing MEFs (TRAM): had no effect

PolyI:C
TRAM phosphorylation on serine 16 in PKCε expressing MEFs (TRAM): had no effect | phosphorylation of GST-TRAM by lysates of stimulated THP1 cells (GST-TRAM): phosphorylation of TRAM does not occur; also recorded: This phosphorylation did not occur
